These results are taken from patent US20100047227A1, “NOVEL ANTICANCER CATHEPSIN FORMULATIONS AND ANTICANCER AGENT FOR USE IN COMBINED ANTICANCER THERAPY” (priority 2006, published 2010).

In assay [1] the test system is various human prostate cancer cell lines. In words: sensitivity of human prostate cancer cell lines to cathepsin E-induced apoptosis. The assay is classed as cell-based. Here is the method: The survival rate of cells was measured by Cell Counting Kit-8 in accordance with a manufacturer's manual. The method will be described briefly as follows. A 96-well (each 100 μl) plate was inoculated with cells (1×10^4 cells) and incubated for 24 hours, and the cells were incubated in a non-serum culture medium Opti-MEM together with a given concentration of each cathepsin purified from rat stomach (References #27 and #60-#62). Thereafter, the kit reagent (10 μl) was added to each well and the wells were incubated for another 1 hour. After incubation, each well was measured at the absorbance of 450 nm with a microplate reader.
In this assay, the cells to be tested were incubated to a ˜80% confluent state and then together with cathepsin E (100 μg/ml) or physiological saline at 37° C. and pH 7.4 for 20 hours, followed by measurements for the cell survival rate by a colorimetric assay. The cell survival rate is represented as a percentage of a corresponding value to the cells treated with physiological saline, and the data is represented as an average value±SD from the data obtained by four separate experiments. In this value, *p<0.001 represents a corresponding value to the cells treated with physiological saline. […] In this experiment, the cells were biotinylated with sulfo-NHS-SS-biotin as a […], decomposable reagent and lyzed, and the resulting cell lysate was incubated with streptoavidin-agarose beads at 4° C. for 2 hours. After the beads were washed, the related proteins were subjected to an immunoblot analysis using an anti-TRAIL antibody or an antibody to a TRAIL membrane-related receptor. The cell lysate portion was also subjected to a direct immunoblot analysis using an anti-β-actin antibody. As an alternative method, a culture medium of each cell line was immunoblot-analyzed using an anti-OPG antibody. […] Thereafter, the immunoblot was analyzed for its concentration in order to determine a quantity of a soluble TRAIL trimer. […]

In a further assay the test system is TNF-α. In words: ELISA of TNF-α in culture supernatant of ALVA-41 cells. The assay is classed as cell-based, human. The conditions noted are these: ALVA-41 cells treated with cathepsin E 100 μg/ml, 20 hours. Here is the method:
(§1) ALVA-41 cells (1×10^6 cells per a 6-cm dish) were incubated together with cathepsin E (100 μg/ml) in a non-serum culture medium Opti-MEM at 37° C. for 20 hours. The resulting culture supernatant was measured for amounts of TRAIL, FasL and TNF-α with ELSA kit in a manner as will be described briefly. A sample and a standard product (each 100 μl) were added to a microtiter plate immobilized with a monoclonal antibody to the corresponding member of the TNF family and incubated at room temperature for 2 hours. Then, the wells of the microtiter plate were washed four times with a washing buffer and 100 μl of biotin-conjugated monoclonal antibody was added to each wells of the plate, following by incubation at room temperature for 1 hour and washing the wells of the plate completely. Then, they were incubated together with 100 μl of streptoavidin-conjugated horseradish peroxidase at room temperature for 30 minutes and washed four times with a washing buffer. […] After an addition of a reaction terminating solution, the wells were measured at 450 nm with microreader.
(§2) In this experiment, the ALVA-41 cells were treated with cathepsin E (100 μg/ml) or physiological saline at 37° C. and pH 7.4 for 20 hours and measured for the amounts of TNF-α, FasL and TRAIL in the culture supernatant by ELSA. […] Apoptosis of the ALVA-41 cells was measured using the culture supernatant after immunoprecipitation. […]

Assay [2] concerns human prostate cancer ALVA-41 cells. In words: measurement for apoptosis (morphology, annexin V staining, TUNEL assay), ALVA-41 cells. The assay is classed as cell-based. The conditions noted are these: ALVA-41 cells. Here is the method:
The cells were measured for a morphological variation of apoptosis by phase contrast microscopy. The cells of prophase and post-phase apoptosis were detected by annexin V staining and TUNEL assay. In order to carry out the annexin V staining of ALVA-41 cells, the cells were exposed to cathepsin E or cathepsin L for 4 hours and centrifuged. After centrifugation, the separated cells were washed twice with PBS and incubated with fluorescein isothiocyanate-conjugated annexin V for 10 minutes at room temperature in a dark place. The cells that were positive as a result of the annexin V staining were then detected with fluorescence microscope. The TUNEL assay was carried out for the incubated tumor cells using Apop Tag Peroxidase Apoptosis Detection Kit and for heterografts using Tumor TACS In Situ Apoptosis Detection Kit.
In the figure, an indicating bar scale represents 50 μm. […] In the figure, an indicating bar scale represents 50 μm.

A further assay has as its system TRAIL. Nature of the assay: ELISA of TRAIL in culture supernatant of ALVA-41 cells. The conditions noted are these: ALVA-41 cells treated with cathepsin E 100 μg/ml, 20 hours. The assay is classed as cell-based, human. Here is the method:
as §1, §2

cathepsin E: the “induction of apoptosis in human prostate cancer cell lines” value in assay [1] (100 μg/ml, 37° C., pH 7.4, 20 hours) is on record as “induced apoptosis for all cells”. Also, in assay [1] (PC-3 versus PPC-1), the “sensitivity as to cell survival effect, PC-3 cells relative to PPC-1 cells” value was “approximately 20 times”. The “order of increasing sensitivity of cell lines to cathepsin E-induced apoptosis” value in assay [1] (PPC-1, DU145, ALVA-41, PC-3) is recorded as “PPC-1<DU145≦ALVA-41<PC-3”. Also, the “TNF-α in culture supernatant” value in the assay with TNF-α was “little detected”. Further, the “staining with annexin V and TUNEL reagent” value in assay [2] (50 μg/ml) is recorded as “positive”. Moreover, the “morphological changes of treated cells” value in assay [2] (microscopy, 100 μg/ml) was “morphological features of apoptosis”. Moreover, the “TRAIL in culture supernatant” value with TRAIL was “apparently secreted”.
